Measured values: patent US10035778B2, “Meta-azacyclic amino benzoic acid derivatives as pan integrin antagonists” (Saint Louis University, priority 2015, dated 2018)

What was measured:
[1] = biological target: Recombinant human integrin αvβ3 (Homo sapiens (Human), UniProt P05106+P06756); experiment: Solid Phase Receptor Assay (SPRA) for αvβ3 function; format: binding; settings: vitronectin-coated plate
Protocol: 3. Solid Phase Receptor Assay (SPRA) for αvβ3 Function
Recombinant human vitronectin (R& D Systems, 2308-VN) diluted to 1 μg/mL in TBS+ buffer (25 mM Tris pH 7.4, 137 mM NaCl, 2.7 mM KCl, 1 mM CaCl2, 1 mM MgCl2, 1 mM MnCl2) was added to wells (50 μL/well) of a 96-well half-well transparent microtiter plate (Greiner 675061) and incubated overnight at 4° C. Wells were washed 3 times with 150 μL TBS+ and 150 μL of blocking buffer (TBS+ with 1% bovine serum albumin, Sigma A7906) were added. The plate was incubated for 1 hr at 37° C. and then washed 3× with TBS+ buffer. Recombinant human integrin αvβ3 (R&D Systems, 3050-AV) was diluted to 1 μg/mL in TBS+/0.1% bovine serum albumin. Compounds were diluted 1:100 into the integrin solution and then 50 μL added to empty wells of the washed vitronectin-coated plate according to a standard template with each sample repeated in triplicate. After incubation for two hours at room temperature, the plate was washed 3× with 150 μL of TBS+ buffer. To each well, 50 μL of biotinylated anti-αv antibody (R&D Systems, BAF1219) at 0.5 μg/mL in TBS+/0.1% BSA were added and the plate covered and incubated for 1 hr at room temperature. After washing the plate 3× with 150 μL of TBS+ buffer, 50 μL of streptavidin-conjugated horseradish peroxidase (R&D Systems, DY998) diluted in TBS+ blocking buffer were added to the wells and the plate incubated for 20 min at room temperature. The plate was washed 3× with TBS+ buffer followed by 50 μL of TMB substrate (Sigma, T4444) added to each well and the plate was incubated for 20 min at room temperature. Plates were read by colorimetric detection at 650 nm wavelength using a Tecan Safire II plate reader. Concentration-response curves were constructed by non-linear regression (best fit) analysis, and IC50 values were calculated for each compound.

[2] = IV cassette pharmacokinetic study in male Sprague-Dawley rats (Saint Louis University); format: in vivo; settings: plasma; male Sprague-Dawley rat, 1 mg/kg IV cassette, sampling to 24 h; read-out: plasma t½ after 1 mg/kg IV bolus dose in rat (converted)
Protocol: (§1) A minimally sufficient volume of dimethylsulfoxide (DMSO) was added to each test compound to achieve solubilization. For intravenous (IV) delivery, compounds were then formulated as solutions in glycerol formal: saline (either 20:80 or 40:60 v/v) (Sigma Chemicals, St. Louis). For oral (PO) administration, compounds were formulated with 0.5% methylcellulose. Five to six compound solutions were combined into a singled mixed solution for IV and PO cassette administration with final DMSO concentrations <0.6% or <1.2%, for the IV and PO cassettes, respectively. Analytes were detected in test samples using an LC/MS/MS (liquid chromatography/mass spectrometry) system consisting of an LC-20AD pump (Shimadzu, Kyoto, Japan), an HTC PAL autosampler (Leap technologies, Carrboro, N.C.), and a Sciex API-4000 mass spectrometer in ESI mode (AB Sciex, Foster City, Calif.). An Amour C18 reverse phase column (Analytical Sales and Services, Pompton Plains, N.J.) was used for chromatographic separation.
(§2) Pharmacokinetic (PK) studies conducted at Saint Louis University used male Sprague-Dawley rats with an initial body weight of 200 to 220 g. IV PK studies were performed with the following compounds: Examples 1-3 and 5-17 and comparison compounds C12-C18, C29, and C30. Animals were allowed free access to food and water. Rats were individually housed and connected to jugular vein catheters. Each cassette formulation was administered intravenously to two rats (1 mL/kg body weight). Each cassette formulation contained 5-6 compounds at 1 mg/kg in either 20:80 or 40/60 glycerol formal/saline (v/v). Blood was collected manually via the catheter into lithium-heparin tubes at 0.017, 0.083, 0.5, 1, 2, 4, 6 and 24 hours post-dose. Animals were euthanized with CO2 at the end of the experiment.
(§3) Internal standard was added to all samples at 200 ng/mL (final), as well as 150 μL of acetonitrile. Plasma samples (50 μL total volume) were diluted with control nave rat plasma as appropriate to bring the sample measurement into the linear dynamic range of the standard curve. The samples were capped and mixed on a multi-plate vortexer for 5 minutes and centrifuged for 5 minutes at 3200 rmp. The supernant was transferred to 96-well sample plate and capped for LC/MS/MS analysis. Compounds were optimized and monitored for their respective MRM transitions. The mobile phases consisted of 0.1% formic acid (aqueous) and 100% acetonitrile (organic) with an Amour C18 reverse phase column (2.1×30 mm, 5 micron) at a flow rate of 0.35 mL/min. The starting phase was 10% acetonitrile for the 0.9 minutes then increased to 90% acetonitrile over 0.4 minutes, and was maintained for an additional 0.2 minutes before returning to 10% acetonitrile over 0.4 minutes. The 10% acetonitrile was held for an additional 1.6 minutes. Peak areas were integrated using Analyst 1.5.1 (AB Sciex, Foster City, Calif.).

[3] = Oral (PO) cassette pharmacokinetic study in male Sprague-Dawley rats; format: in vivo; settings: plasma; male Sprague-Dawley rat, 2 mg/kg oral gavage cassette in 0.5% methylcellulose; read-out: AUC (0-inf) after a 2 mg/kg PO dose in rat
Protocol: as §1, §2
Oral PK studies were conducted with the following compounds: Examples 1-3 and 5-17 and comparison compounds C12, C14-16 and C29-30. The PO cassette formulations were administered via oral gavage to two rats (10 mL/kg body weight) containing 5-6 compounds per cassette. The oral dose was administered at 2 mg/kg/compound in 0.5% methylcellulose. Blood collection time points were 0.25, 0.5, 1, 2, 4, 6 and 24 hours post-dose into lithium-heparin tubes. Animals were euthanized with CO2 at the end of the experiment.
as §3

Recombinant human integrin αvβ3, sequence (P06756 31-992): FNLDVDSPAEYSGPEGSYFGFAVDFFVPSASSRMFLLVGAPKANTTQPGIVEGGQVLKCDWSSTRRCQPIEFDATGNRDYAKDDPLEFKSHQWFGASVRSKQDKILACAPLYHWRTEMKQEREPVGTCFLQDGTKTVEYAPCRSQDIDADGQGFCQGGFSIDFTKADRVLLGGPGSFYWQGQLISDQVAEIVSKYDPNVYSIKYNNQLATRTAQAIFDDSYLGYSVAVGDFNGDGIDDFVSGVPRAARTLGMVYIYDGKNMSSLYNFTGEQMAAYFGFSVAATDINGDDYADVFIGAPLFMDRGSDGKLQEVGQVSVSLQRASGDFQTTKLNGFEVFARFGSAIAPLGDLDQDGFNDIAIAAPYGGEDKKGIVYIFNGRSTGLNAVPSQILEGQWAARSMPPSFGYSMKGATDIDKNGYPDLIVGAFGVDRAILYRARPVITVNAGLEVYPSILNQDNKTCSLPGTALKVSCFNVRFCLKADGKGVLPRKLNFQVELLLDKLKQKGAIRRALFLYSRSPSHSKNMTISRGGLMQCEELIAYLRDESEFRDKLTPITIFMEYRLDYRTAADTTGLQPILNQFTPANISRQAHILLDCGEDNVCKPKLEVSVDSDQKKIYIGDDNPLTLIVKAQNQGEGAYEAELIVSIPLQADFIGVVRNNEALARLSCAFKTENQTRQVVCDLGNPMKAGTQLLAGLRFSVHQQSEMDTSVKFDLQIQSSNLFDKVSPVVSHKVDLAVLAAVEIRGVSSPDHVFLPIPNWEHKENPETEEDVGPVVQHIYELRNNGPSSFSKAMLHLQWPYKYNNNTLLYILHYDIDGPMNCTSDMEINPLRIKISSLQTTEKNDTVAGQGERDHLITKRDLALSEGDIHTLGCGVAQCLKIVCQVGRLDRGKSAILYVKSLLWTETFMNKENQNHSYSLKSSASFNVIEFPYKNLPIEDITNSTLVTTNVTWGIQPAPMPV
Recombinant human integrin αvβ3, sequence (P05106 27-718): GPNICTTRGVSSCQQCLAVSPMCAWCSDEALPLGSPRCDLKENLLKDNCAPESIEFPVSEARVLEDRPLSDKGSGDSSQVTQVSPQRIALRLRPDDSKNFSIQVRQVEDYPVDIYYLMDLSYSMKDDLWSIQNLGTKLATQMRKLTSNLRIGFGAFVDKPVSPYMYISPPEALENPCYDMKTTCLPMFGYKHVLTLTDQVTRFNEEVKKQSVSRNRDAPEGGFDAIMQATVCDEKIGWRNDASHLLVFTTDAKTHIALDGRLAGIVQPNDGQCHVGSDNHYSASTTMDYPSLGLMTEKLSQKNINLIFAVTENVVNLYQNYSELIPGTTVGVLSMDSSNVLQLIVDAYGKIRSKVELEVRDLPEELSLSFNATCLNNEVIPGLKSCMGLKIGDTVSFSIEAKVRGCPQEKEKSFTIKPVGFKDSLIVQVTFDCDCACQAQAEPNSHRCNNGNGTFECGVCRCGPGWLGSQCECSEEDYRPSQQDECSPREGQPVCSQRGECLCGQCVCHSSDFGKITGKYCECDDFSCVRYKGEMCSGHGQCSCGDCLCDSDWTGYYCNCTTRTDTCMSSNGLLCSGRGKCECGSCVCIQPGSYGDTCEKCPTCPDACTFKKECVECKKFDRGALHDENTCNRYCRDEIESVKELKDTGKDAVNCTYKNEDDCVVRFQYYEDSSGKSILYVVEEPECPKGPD

Compound	IC50 [1] [nM]	half-life [2] [h]	AUC(0-inf) [3] [ng·h/mL]
Cc1cc(Cl)cc([C@H](CC(=O)O)NC(=O)CNC(=O)c2cc(O)cc(NC3=NCC(O)CN3)c2)c1 (stereo partly drawn) [Example 12, (3S)-3-[3-chloro-5-methyl-phenyl)-3-(2-(3-hydroxy-5-((5-hydroxy-1,4,5,6-tetrahydropyrimidin-2-yl)amino)benzamido)acetamido)propanoic acid]	4	13.7	9110
O=C(O)C[C@H](NC(=O)CNC(=O)c1cc(O)cc(NC2=NCC(O)CN2)c1)c1cc(F)cc(Br)c1 (stereo partly drawn) [Example 13, (3S)-3-[3-bromo-5-fluoro-phenyl)-3-(2-(3-hydroxy-5-((5-hydroxy-1,4,5,6-tetrahydropyrimidin-2-yl)amino)benzamido)acetamido)propanoic acid]	1.7	11	13900
O=C(O)C[C@H](NC(=O)CNC(=O)c1cncc(NC2=NCC(O)CN2)c1)c1cc(Br)cc(Br)c1 (stereo partly drawn) [Example 14, (3S)-3-(3,5-dibromophenyl)-3-[[2-[[5-[(5-hydroxy-1,4,5,6-tetrahydropyrimidin-2-yl)amino]pyridine-3-carbonyl]amino]acetyl]amino]propanoic acid]	0.3	34.2	6500
O=C(O)C[C@H](NC(=O)CNC(=O)c1cc(O)cc(NC2=NCC(O)CN2)c1)c1cc(Cl)cc(Cl)c1 (stereo partly drawn) [Example 15, (3S)-3-[3,5-dichloro-phenyl)-3-(2-(3-hydroxy-5-((5-hydroxy-1,4,5,6-tetrahydropyrimidin-2-yl)amino)benzamido)acetamido)propanoic acid]	4	23.8	15600
O=C(O)C[C@H](NC(=O)CNC(=O)c1cc(O)cc(NC2=NCC(O)CN2)c1)c1cc(Cl)cc(OC(F)(F)F)c1 (stereo partly drawn) [Example 16, (3S)-3-[3-chloro-5-(trifluoromethoxy)phenyl)-3-(2-(3-hydroxy-5-((5-hydroxy-1,4,5,6-tetrahydropyrimidin-2-yl)amino)benzamido)acetamido)propanoic acid]	3 ± 0.3	3.2	6810
O=C(O)C[C@H](NC(=O)CNC(=O)c1cc(O)cc(NC2=NCC(O)CN2)c1)c1cc(Br)cc(OC(F)(F)F)c1 (stereo partly drawn) [Example 17, (3S)-3-(3-bromo-5-(trifluoromethoxy)phenyl)-3-(2-(3-hydroxy-5-((5-hydroxy-1,4,5,6-tetrahydropyrimidin-2-yl)amino)benzamido)acetamido)propanoic acid]	2.8 ± 1.1	4.1	13100
